Earlier results on two compounds are cited in patent publication US20220347144A1, “COMPOSITIONS AND METHODS FOR PREVENTING AND/OR REDUCING WEIGHT GAIN AND ASSOCIATED CONDITIONS” (University of Virginia Patent Foundation, priority 2019, published 2022).

Data set [1] has as its system rats. The following applies: triglyceride form, Kojima et al., 2010; cited from earlier work.
In data set [2] the test system is rats. Conditions: in rapeseed oil, Hulan et al., 1977; cited from earlier work.

As for `CCCCCCCCCCCCCCCCCCCCCC(=O)O` [behenic acid], the obesity result in data set [1] was “prevented obesity”.

Consider `CCCCCCCC/C=C\CCCCCCCCCCCC(=O)O` [erucic acid, (Z)-docos-13-enoic acid], for which, in data set [2], the heart lesions entry is “implicated in causing heart lesions”.
